In patent US20250127168A1, “METHOD FOR PATHOGENS, MICROORGANISMS, AND PARASITES INACTIVATION” (New York Blood Center, Inc., priority 2018, published 2025):

Tests used:
[1] = biological target: T1, RSV's fusion (F) protein (Human respiratory syncytial virus A, UniProt P03420); assay: Anti-F antibody binding to treated RSV (ELISA); conditions: 100 μM, 4 hours at 40° C.
T1 construct: Sucrose gradient-purified RSV was treated with compound VI and compound X; host or cells: sucrose gradient-purified RSV virions
T1 sequence (P03420 137-574): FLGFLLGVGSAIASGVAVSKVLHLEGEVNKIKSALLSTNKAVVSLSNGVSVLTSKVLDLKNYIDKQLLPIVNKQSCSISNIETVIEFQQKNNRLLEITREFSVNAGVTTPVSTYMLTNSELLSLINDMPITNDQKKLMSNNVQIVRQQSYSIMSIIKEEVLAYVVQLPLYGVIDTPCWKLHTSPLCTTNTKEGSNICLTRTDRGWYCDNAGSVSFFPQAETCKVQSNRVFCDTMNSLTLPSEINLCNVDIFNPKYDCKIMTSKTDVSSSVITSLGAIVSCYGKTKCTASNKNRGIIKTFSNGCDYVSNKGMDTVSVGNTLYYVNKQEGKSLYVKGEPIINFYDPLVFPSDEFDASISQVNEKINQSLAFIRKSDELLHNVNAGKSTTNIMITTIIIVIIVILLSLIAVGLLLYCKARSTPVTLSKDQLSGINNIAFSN
T1 sequence (P03420 26-109): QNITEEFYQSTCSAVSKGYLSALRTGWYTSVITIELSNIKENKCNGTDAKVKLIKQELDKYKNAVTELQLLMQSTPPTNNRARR
Description: Controls included mock-treated RSV incubated for 4 hours at 40° C. and non-treated virus kept at 4°° C. ELISA assay was performed according procedure described by Schmidt et al, J Virol. […] Eight serial 1:2 dilutions in PBS were plated (50 µl/well) in triplicates into 96-well plates, and incubated overnight at 4° C. The wells were washed with PBS and blocked with PBS/1% BSA. Anti-protein F antibody was added, and the mixture was incubated for 2 h, followed by washings and the addition of anti-mouse IgG HRP conjugate. After another round of washing, TMB substrate and sulfuric acid were added and readings were conducted using ELISA Reader SPECTRAmax PLUS (Molecular Devices,

[2] = test system: B. cereus; assay: Bacterial inactivation in Ringer's solution, colony agar plate count; assay type: cell-based; conditions: 100 μM, RT, 1 h treatment
Description: (§1) A panel of G+F and G-bacteria were inactivated in their respective growth medium using compound VI, compound X, and compound XIV. All cells were grown in corresponding media to middle log phase, collected by centrifugation, re-suspended in Ringer's solution (RS), and treated at RT with 100 μM of compound VI, compound X, and compound XIV, which were added to the suspension as 100× concentrate in RS. Controls received RS only. At the end of the incubation, unreacted compound VI, compound X, and compound XIV were neutralized with 10 mM sodium thiophosphate during incubation at RT for 30 min. The viable cells were enumerated using serial dilutions by standard colony agar plate count. Table 1 summarizes the typical results of 1 h treatment of E. coli, P. fluorescens, Y. enterocolitica, B. cereus, S. aureus, and S. epidermidis with compound VI, compound X, and compound XIV.

[3] = test system: E. coli; assay: as above; assay type: cell-based; conditions: 100 μM, RT, 1 h treatment
Description: as §1

[4] = test system: P. fluorescens; assay: as above; assay type: cell-based; conditions: 100 μM, RT, 1 h treatment
Description: as §1

[5] = test system: S. aureus; assay: as above; assay type: cell-based; conditions: 100 μM, RT, 1 h treatment
Description: as §1

[6] = test system: S. epidermidis; assay: as above; assay type: cell-based; conditions: 100 μM, RT, 1 h treatment
Description: as §1

[7] = test system: Y. enterocolitica; assay: as above; assay type: cell-based; conditions: 100 μM, RT, 1 h treatment
Description: as §1

[8] = test system: porcine parvovirus (PPV); assay: Viral inactivation in RS, endpoint dilution assay; assay type: cell-based; conditions: 100 μM, RT
Description: (§2) The porcine parvovirus (PPV) was inactivated by using compound VI and compound X. Treatments were conducted in RS (pH 6.9) at RT with 100 μM using compound VI and compound X and 10% virus spike. Residual compounds were quenched by incubation with 10 mM Na2S2O3 for 2 hours at RT. Virus titers, expressed as Log10TCID50/mL, were determined using the standard endpoint dilution assay with permissive to PPV porcine testis cells. After the incubation of indicator cells for 6 days, infected wells were counted under microscope by visual inspection. To confirm the results, secondary infection using conditioned media from the first plate wells as samples was conducted.

[9] = test system: Bovine viral diarrhea virus (BVDV); assay: Viral inactivation in RS, endpoint dilution assay; assay type: cell-based; conditions: 100 μM, RT
Description: as §2
Bovine viral diarrhea virus (BVDV) was inactivated by using compound VI and compound X. The protocol used for […] except the indicator cells, which were bovine turbinate cells.

[10] = test system: Human respiratory syncytial virus (RSV); assay: Viral inactivation, modified plaque assay; assay type: cell-based; conditions: 100 μM, RT
Description: Human respiratory syncytial virus (RSV) was inactivated by using Compound VI or Compound X. For that purpose, sucrose gradient-purified virus was treated with 100 μM of Compound VI and Compound X at RT. […] The virus titers were determined using standard 10× serial dilutions in a modified plaque assay. For mock-treated virus no significant changes in RSV infectivity were found even after 6 h incubation at RT (in different experiments, the reduction of titers were in the range of 0.11-0.36 Login PFU/mL).
Inactivation of RSV with different concentrations of Compound XVI at RT and 40° C. was performed as described in Example 9.

[11] = test system: B. cereus; assay: Bacterial inactivation in WB, LB and RBCC, growth/no growth; assay type: cell-based; set-up: key: “+” Growth; “−” No growth; conditions: 6 h at RT
Description: (§3) Two G− species, Y. enterocolitica and P. fluorescens, both psychrophiles, and two G+ bacteria, S. epidermids and B. cereus, all known blood contaminants, were used in this study. All blood samples were spiked with approximately 0.1% bacterial stock suspension prepared in RS and left for equilibration at RT for 30 min. Freshly grown overnight bacterial cultures were used for each spiking. Compound VI and compound X were added to spiked blood to final concentrations of 100, 250, and 500 μM. Control samples (Ctr) received solvent only. Incubation was carried out at RT for 6 h followed by the addition of an inactivator, 100x Na thiosulfate, and additional incubation at RT for 2 h. After the incubation and quenching, aliquots were taken for serial dilutions and plate drop-counting and the bacterial growth-promoting solution (containing tryptone, peptone, yeast extract and casamino acids) was added to the remaining volumes. The growth/no growth results were confirmed by streaking agar plates.

[12] = test system: P. fluorescens; assay: as above; assay type: cell-based; set-up: key: “+” Growth; “−” No growth; conditions: 6 h at RT
Description: as §3

[13] = test system: S. epidermidis; assay: as above; assay type: cell-based; set-up: key: “+” Growth; “−” No growth; conditions: 6 h at RT
Description: as §3

[14] = test system: Y. enterocolitica; assay: as above; assay type: cell-based; set-up: key: “+” Growth; “−” No growth; conditions: 6 h at RT
Description: as §3

[15] = row 1 h, footnote c: time points were 2, 4, and 6 h (2 h)
[16] = row 3 h, footnote c: time points were 2, 4, and 6 h (4 h)

CN(CCCCN(C)CCCN1CC1)CCCN1CC1 [Compound VI, N^1,N^4-bis(3-(aziridin-1-yl)propyl)-N^1,N^4-dimethylbutane-1,4-diamine]
recognition of the F protein by monoclonal antibody after treatment [1]: did not change the degree of recognition of the F protein
Titer [2]: 2.45 Log10CFU/mL
Titer [3]: 4.60 Log10CFU/mL
Titer [4]: 2.78 Log10CFU/mL
Titer [5]: 7.08 Log10CFU/mL
Titer [6]: 8.11 Log10CFU/mL
Titer [7]: 6.72 Log10CFU/mL
PPV titer ([8]; RS pH 6.9, incubation 1 h): 2.95 Log10TCID50/mL
PPV titer ([8]; RS pH 6.9, incubation 3 h): 0.85 Log10TCID50/mL
PPV titer ([8]; RS pH 6.9, incubation 6 h): below the limit of detection and BLD
BVDV titer ([9]; incubation 1 h): 3.27 Log10TCID50/mL
BVDV titer ([9]; incubation 3 h): 1.30 Log10TCID50/mL
BVDV titer ([9]; incubation 6 h): below the limit of detection and BLD
RSV titer ([10]; incubation 6 h): below the limit of detection and BLD
RSV titer [10, 15]: 4.52 Log10PFU/mL
RSV titer [10, 16]: 1.89 Log10PFU/mL
Growth / No growth ([11]; LB, 100 μM): −
Growth / No growth ([11]; LB, 250 μM): −
Growth / No growth ([11]; LB, 500 μM): −
Growth / No growth ([11]; RBCC, 100 μM): +
Growth / No growth ([11]; RBCC, 250 μM): −
Growth / No growth ([11]; RBCC, 500 μM): −
Growth / No growth ([11]; WB, 100 μM): +
Growth / No growth ([11]; WB, 250 μM): −
Growth / No growth ([11]; WB, 500 μM): −
Growth / No growth ([12]; LB, 100 μM): −
Growth / No growth ([12]; LB, 250 μM): −
Growth / No growth ([12]; LB, 500 μM): −
Growth / No growth ([12]; RBCC, 100 μM): −
Growth / No growth ([12]; RBCC, 250 μM): −
Growth / No growth ([12]; RBCC, 500 μM): −
Growth / No growth ([12]; WB, 100 μM): −
Growth / No growth ([12]; WB, 250 μM): −
Growth / No growth ([12]; WB, 500 μM): −
Growth / No growth ([13]; LB, 100 μM): −
Growth / No growth ([13]; LB, 250 μM): −
Growth / No growth ([13]; LB, 500 μM): −
Growth / No growth ([13]; RBCC, 100 μM): −
Growth / No growth ([13]; RBCC, 250 μM): −
Growth / No growth ([13]; RBCC, 500 μM): −
Growth / No growth ([13]; WB, 100 μM): −
Growth / No growth ([13]; WB, 250 μM): −
Growth / No growth ([13]; WB, 500 μM): −
Growth / No growth ([14]; LB, 100 μM): −
Growth / No growth ([14]; LB, 250 μM): −
Growth / No growth ([14]; LB, 500 μM): −
Growth / No growth ([14]; RBCC, 100 μM): −
Growth / No growth ([14]; RBCC, 250 μM): −
Growth / No growth ([14]; RBCC, 500 μM): −
Growth / No growth ([14]; WB, 100 μM): −
Growth / No growth ([14]; WB, 250 μM): −
Growth / No growth ([14]; WB, 500 μM): −

CN(CCCCN(C)CCCN1CC1)CCCN(C)CCCN1CC1 [Compound X]
recognition of the F protein by monoclonal antibody after treatment [1]: did not change the degree of recognition of the F protein
Titer [2]: ≤1.00 Log10CFU/mL
Titer [3]: 3.98 Log10CFU/mL
Titer [4]: ≤1.00 Log10CFU/mL
Titer [5]: 6.70 Log10CFU/mL
Titer [6]: 7.32 Log10CFU/mL
Titer [7]: 4.85 Log10CFU/mL
PPV titer ([8]; RS pH 6.9, incubation 1 h): 3.09 Log10TCID50/mL
PPV titer ([8]; RS pH 6.9, incubation 3 h): 2.72 Log10TCID50/mL
PPV titer ([8]; RS pH 6.9, incubation 6 h): 0.78 Log10TCID50/mL
BVDV titer ([9]; incubation 1 h): 3.88 Log10TCID50/mL
BVDV titer ([9]; incubation 3 h): 2.94 Log10TCID50/mL
BVDV titer ([9]; incubation 6 h): 0.84 Log10TCID50/mL
RSV titer ([10]; incubation 6 h): 1.95 Log10PFU/mL
RSV titer [10, 15]: 4.95 Log10PFU/mL
RSV titer [10, 16]: 3.48 Log10PFU/mL
Growth / No growth ([11]; LB, 100 μM): −
Growth / No growth ([11]; LB, 250 μM): −
Growth / No growth ([11]; RBCC, 250 μM): −
Growth / No growth ([11]; WB, 100 μM): −
Growth / No growth ([11]; WB, 250 μM): −
Growth / No growth ([11]; WB, 500 μM): −
Growth / No growth ([12]; LB, 100 μM): −
Growth / No growth ([12]; LB, 250 μM): −
Growth / No growth ([12]; RBCC, 100 μM): −
Growth / No growth ([12]; RBCC, 250 μM): −
Growth / No growth ([12]; WB, 100 μM): −
Growth / No growth ([12]; WB, 250 μM): −
Growth / No growth ([13]; LB, 100 μM): −
Growth / No growth ([13]; LB, 250 μM): −
Growth / No growth ([13]; RBCC, 100 μM): −
Growth / No growth ([13]; RBCC, 250 μM): −
Growth / No growth ([13]; WB, 100 μM): −
Growth / No growth ([13]; WB, 250 μM): −
Growth / No growth ([14]; LB, 100 μM): −
Growth / No growth ([14]; LB, 250 μM): −
Growth / No growth ([14]; RBCC, 100 μM): −
Growth / No growth ([14]; RBCC, 250 μM): −
Growth / No growth ([14]; WB, 100 μM): −
Growth / No growth ([14]; WB, 250 μM): −
